Blank lines part the entries; values can stand above or below the compound they belong to. Numbered stars: 1 amine (or outer) side, 2 acyl side, 3 side chain; on linkers, the order of the positions; unused ones are H or OH. Bridge positions count the residues as written; N and C are the ends. Square brackets hold non-standard residues; d marks the D form. Peptide text beside a SMILES is read from it. I, II: the chains in the order shown. Actinocin(9to1) = Cc1c2oc3c(C)ccc(C(=O)[*:1])c3nc-2c(C(=O)[*:2])c(N)c1=O; NMeV = CN[C@H](C(=O)O)C(C)C; Sar = CNCC(=O)O
How the values were obtained:
Type in all cases: cell-based, human
SW480 cells [1] = conditions: for effect on apoptosis: 200 μM fatty acid, 48 hours; for inhibition of SUS-induced apoptosis: co-treatment with SUS 200 μM (CHX 10 μM; PGE2 10 μM)
SW480 cells [2] = experiment: Ceramide levels, E. coli diacylglycerol (DAG) kinase assay; conditions: for effect on ceramide levels: 48 hours
Description: (§1) Cells were harvested and ceramide was quantified. The first lane of each panel corresponds to a ceramide standard (ceramide type III, Sigma). […] HCT116 and SW480 cells were treated with SUS or INDO as indicated. Ceramide levels were determined as described above. […] Control cells were treated with DMSO vehicle only. Cells were harvested at the indicated times following treatment and ceramide levels were determined as described above. The data are plotted as the mean of at least two experiments with the error bars corresponding to the standard deviation.
(§2) Ceramide levels were measured using the Escherichia coli diacylglycerol (DAG) kinase assay as previously described (30) with the following modifications. After the initial lipid extraction, phases were broken by adding 2 ml chloroform and 2 ml 1M NaCl and lipids were washed with 1M NaCl prior to drying under nitrogen (32, 33). After solubilization, samples were sonicated for 15 seconds. The DAG reaction was performed for 30 minutes at 25° C. in a 100 μl reaction volume with 3.5 μg DAG kinase (Calbiochem) and […] γ^32 P-ATP (Dupont NEN, 6000 Ci/mmol). After extraction of the labeled lipids, the lower chloroform phase was washed with 1% HCl prior to drying under nitrogen. The solvent mixture for thin layer chromatography was chloroform:acetone:methanol:acetic acid:water (10:4:3:2:1). Samples were quantitated using a Phosphorimager (Molecular Dynamics).

SW480 cells [3] = experiment: cells; conditions: for increase in arachidonic acid: sw480 cells
Description: (§3) FIGS. 4A, 4B, 4C, 4D, 4E and 4F. The role of arachidonic acid in NSAID-mediated apoptosis. […] HCT116 and SW480 cells were treated with the indicated concentrations of SUS or INDO. Arachidonic acid (AA) levels were determined by measuring release of ^3 H-AA into the media as previously described (18). Data are indicated as the mean of three replicates with the error bars corresponding to the standard deviation. In addition, the nature of the released radiolabeled material was evaluated by thin layer chromatography as previously described (28). […] HCT116 and SW480 cells were incubated with ^3 H-choline chloride (0.5 mCi ml^-1, 80 Ci mmol^-1, New England Nuclear) for 48 hours. After labeling, cells were washed with HBSS (Gibco) and treated with SUS or INDO for the indicated times. Sphingomyelin measurements were performed using the bacterial sphingomyelinase method as previously described (18). Sphingomyelin levels at each time point are plotted as a percentage of that in untreated control cells. For each point, the mean of at least two independent experiments is presented with the error bars corresponding to the standard deviations. […] SW480 cells were treated with 200 μM arachidonic acid (AA), SUS (SUS) or behenic acid as a control fatty acid (FA) as indicated. […] SW480 cells were treated with suboptimal doses (100 μM) of arachidonic acid (AA), SUS (SUS), or both (AA+SUS) as indicated. After 48 hours of treatment, apoptosis and ceramide increases were assessed as described for FIGS. 1 and 3, respectively. Ceramide increases (left axis) were expressed as fold increases relative to untreated cells. Apoptosis (right axis) was expressed as percent apoptotic cells minus percent apoptotic cells in untreated cells (5.6%+/-2.4). Data are indicated as the mean of duplicates with the error bars corresponding to the standard deviation.
(§4) Arachidonic acid is known to stimulate neutral sphingomyelinase (18), which catalyzes the conversion of sphingomyelin to ceramide. We therefore considered the possibility that inhibition of COX activity might lead to increases in arachidonic acid, the substrate for COX. To test this hypothesis, we first determined whether SUS stimulated arachidonic acid accumulation. In both SW480 and HCT 116 cells, apoptosis-inducing doses of SUS increased arachidonic acid by 2 to 3 fold at 24 hours and by approximately 5 fold at 48 hours (FIGS. 4A and 4B). The arachidonic acid increase following SUS treatment was as great as that following treatment with mellitin, a known activator of phospholipase A2. Arachidonic acid levels in HCT116 cells increased 3.5 fold one hour after treatment with 1 μM mellitin. Likewise, arachidonic acid levels increased 2.9 fold in SW480 cells one hour after mellitin treatment. Arachidonic acid (AA) levels were determined by measuring release of ^3 H-AA into the media as previously described (18). The nature of released radiolabeled material was evaluated by thin layer chromatography analysis as previously described (28).

HCT116 cells [4] = experiment: Arachidonic acid levels, release of 3H-AA into the media
Description: as §3, §4

HCT116 cells [5] = conditions: for inhibition of SUS-induced apoptosis: co-treatment with SUS 125 μM (CHX 10 μM; PGE2 10 μM)
Description: FIGS. 1A, 1B and 1C NSAID induce apoptosis in human colorectal cancer cells. In FIG. […] Cells were collected at the indicated times, fixed and stained with Hoechst 33258 (23). The cells were counted and those with fragmented nuclei were scored as apoptotic. In FIG. 1B, HCT116 and SW480 cells were treated with SUS or INDO for 60 hours, harvested and stained as described above. Cells treated with SUS or INDO show the hallmarks of apoptosis.
(§5) This death appeared to be apoptotic, as it was accompanied by nuclear condensation and fragmentation (FIG. 1B) and exposure of phosphatidylserine groups on the cell surface, two hallmarks of apoptosis (11, 12).

SW480 cells [6] = conditions: indomethacin treatment
Description: FIGS. 1A, 1B and 1C NSAID induce apoptosis in human colorectal cancer cells. In FIG. 1A, HCT116 and SW480 cells were treated with indomethacin (INDO) (300 μM) or SUS (125 μM for HCT116 and 200 μM for SW480 cells). Cells were collected at the indicated times, fixed and stained with Hoechst 33258 (23). The cells were counted and those with fragmented nuclei were scored as apoptotic. In FIG. 1B, HCT116 and SW480 cells were treated with SUS or INDO for 60 hours, harvested and stained as described above. Cells treated with SUS or INDO show the hallmarks of apoptosis.
as §5

HCT116 cells [7] = experiment: Ceramide levels, E. coli diacylglycerol (DAG) kinase assay; conditions: indomethacin treatment
Description: as §1, §2

HCT116 cells [8] = experiment: Sphingomyelin levels, bacterial sphingomyelinase method; conditions: indomethacin treatment
Description: as §3
(§6) To test whether the increased ceramide was associated with evidence of augmented sphingomyelinase activity, we measured total sphingomyelin levels after SUS treatment. […] We also measured neutral sphingomyelinase activity in lysates from the treated cells and no differences were found. Neutral sphingomyelinase activity was assayed as described (18). After cell lysis, protein concentrations were determined using the Bradford method (Bio-Rad) and […] cellular protein was used in each assay. Neutral sphingomyelinase activity was determined by measuring the rate of hydrolysis of ^14 C-labelled sphingomyelin (Amersham). SW480 and HCT116 cell lines were treated with SUS (50, 200, and 600 μM) for 6 to 24 hours.

SW480 cells [9] = experiment: as above; conditions: indomethacin treatment
Description: as §3, §6

Compound: CCCCC/C=C\C/C=C\C/C=C\C/C=C\CCCC(=O)O [arachidonic acid]
- effect on apoptosis (SW480 cells [1]): a potent inducer of ceramide and apoptosis
- effect on ceramide levels (SW480 cells [2]; 200 μM fatty acid): a potent inducer of ceramide and apoptosis
- effect on ceramide levels (SW480 cells [2]; suboptimal doses, 100 μM each, separately or together): little effect on ceramide levels

- increase in arachidonic acid (SW480 cells [3]; 16 h, 100 µM): 1.9 fold
- increase in arachidonic acid (HCT116 cells [4]; hct116 cells, 16 h, 100 µM): 1.5 fold
Compound: ceramide
- induction of apoptosis (SW480 cells [1]; human, sw480 cells, 16 h, 100 µM): > 90%
- induction of apoptosis (HCT116 cells [5]; human, hct116 cells, 16 h, 100 µM): > 90%

Compound: CCCCCCCCCCCCCCCCCCCCCC(=O)O [behenic acid]
- effect on apoptosis (SW480 cells [1]): virtually no effect on ceramide levels and apoptosis
- effect on ceramide levels (SW480 cells [2]; 200 μM fatty acid): virtually no effect on ceramide levels and apoptosis

Compound: CCCCC[C@H](O)/C=C/[C@H]1[C@H](O)CC(=O)[C@@H]1C/C=C\CCCC(=O)O [prostaglandin E2]
- inhibition of SUS-induced apoptosis (SW480 cells [1]): No inhibition of apoptosis was observed
- inhibition of SUS-induced apoptosis (HCT116 cells [5]): No inhibition of apoptosis was observed

Compound: C[C@@H]1C[C@@H]([C@H](O)CC2CC(=O)NC(=O)C2)C(=O)[C@@H](C)C1 [cycloheximide]
- inhibition of SUS-induced apoptosis (SW480 cells [1]): completely inhibit apoptosis
- inhibition of SW480 cell death (SW480 cells [1]; higher concentrations of SUS): could not inhibit
- inhibition of SUS-induced apoptosis (HCT116 cells [5]): completely inhibit apoptosis

Compound: Cc1c2oc3c(C)ccc(C(=O)N[C@@H]4C(=O)N[C@H](C(C)C)C(=O)N5CCC[C@H]5C(=O)N(C)CC(=O)N(C)[C@@H](C(C)C)C(=O)O[C@@H]4C)c3nc-2c(C(=O)N[C@@H]2C(=O)N[C@H](C(C)C)C(=O)N3CCC[C@H]3C(=O)N(C)CC(=O)N(C)[C@@H](C(C)C)C(=O)O[C@@H]2C)c(N)c1=O [actinomycin D] (I: T[dV]P[Sar][NMeV] / II: T[dV]P[Sar][NMeV]; ester I:1-I:C, II:1-II:C; linker I:N-II:N via Actinocin(9to1))
- inhibition of SUS-induced apoptosis (SW480 cells [1]): completely inhibit apoptosis
- inhibition of SUS-induced apoptosis (HCT116 cells [5]): completely inhibit apoptosis

Compound: COc1ccc2c(c1)c(CC(=O)O)c(C)n2C(=O)c1ccc(Cl)cc1 [indomethacin]
- increase of arachidonic acid concentration compared with SUS (SW480 cells [3]; indomethacin treatment): to similar degrees as SUS
- increase in arachidonic acid (SW480 cells [3]): 3-4 fold
- increase of arachidonic acid concentration compared with SUS (HCT116 cells [4]; indomethacin treatment): to similar degrees as SUS
- induction of apoptosis compared with SUS (SW480 cells [6]): to similar degrees as SUS
- cells induced to undergo apoptosis (SW480 cells [6]; cycloheximide sensitive): 94%
- increase of ceramide concentration compared with SUS (HCT116 cells [7]): to similar degrees as SUS
- increase in ceramide levels (SW480 cells [2]; indomethacin treatment): 6 fold
- increase of ceramide concentration compared with SUS (SW480 cells [2]; indomethacin treatment): to similar degrees as SUS
- activation of sphingomyelin hydrolysis compared with SUS (HCT116 cells [8]): to similar degrees as SUS
- activation of sphingomyelin hydrolysis compared with SUS (SW480 cells [9]): to similar degrees as SUS
- induction of apoptosis compared with SUS (HCT116 cells [5]; indomethacin treatment): to similar degrees as SUS

Compound: mellitin
- increase in arachidonic acid levels (SW480 cells [3]; one hour after mellitin treatment, 60 min): 2.9 fold
- increase in arachidonic acid levels (HCT116 cells [4]; one hour after 1 μM mellitin): 3.5 fold

From patent publication US5874235A, “Screening assays for cancer chemopreventative agents” (The Johns Hopkins University, priority 1997, dated 1999)
